Results taken from the OPERA property sets (Mansouri et al. 2018).

SMILES	logP	logD (pH 7.2)
NC(=O)C(Cc1ccccc1)NC(=O)C(N)Cc1ccccc1 (stereo unspecified)	1.13	
CCCN(CCC)c1c([N+](=O)[O-])cc(C(F)(F)F)cc1[N+](=O)[O-]	5.34	
CN(C(N)=S)c1ccccc1	0.85	
CCOP(=S)(OCC)SCCSCC	4.02	
O=C1OCc2ccccc21	0.8	
O=C(O)c1cccc2ccccc12	3.1	
CN1C(=O)C(=O)c2ccccc21	0.58	
CC(C)c1ccccc1O	2.88	
Clc1ccc(-c2ccc(Cl)c(Cl)c2Cl)cc1	5.84	
CN1C(=O)c2ccccc2C1=O	1.31	
Clc1ccc(-c2ccc(Cl)cc2Cl)c(Cl)c1	6.29	
CCCCCOC1OC(CO)C(O)C(O)C1O (stereo unspecified)	-0.42	
N#CCC(=O)c1ccccc1	0.97	
O=C1CN=C(c2ccc(F)cc2)c2cc(Cl)ccc2N1	2.9	
c1cocn1	0.12	
S=C(N/N=C/c1cc[nH]c1)Nc1ccccc1	3.73	
CN(C)C(=O)c1cccs1	0.75	
CCC1(CCC(C)C)C(=O)NC(=O)NC1=O	2.07	
Nc1nc2nn[nH]c2c(=O)[nH]1	-0.71	
CC(C)C(=O)NC(N)=O	0.04	
CCOCCN(CCOCC)N=O	0.79	
N#Cc1cccc(OCC(=O)O)c1	0.95	
O=C(C(=O)c1ccco1)c1ccco1	1.24	
CCCCC(=O)OCC(=O)C1(O)C(C)CC2C3CCC4=CC(=O)C=CC4(C)C3(F)C(O)CC21C (stereo unspecified)	3.87	

SMILES	logP	logD (pH 7.2)
C=CCN1CC[C@]23CCCC[C@H]2[C@H]1Cc1ccc(O)cc13	3.48	
CN(C)C(=S)NN	-0.3	
Oc1c(Cl)cccc1Cl	2.75	
CC(C)c1ccc(NC(=O)N(C)C)cc1	2.87	
O=C(CN1CCCCC1)Nc1ccccc1	2.71	
NC(CCCc1ccccc1)C(=O)O (stereo unspecified)	-0.36	
Cc1ccc(NC(=O)N(C)C)cc1Cl	2.41	
CC(C)c1ccc(O)cc1	2.9	
COc1ccc2ncccc2c1	2.2	
O=c1cccc[nH]1	-0.58	
C=C(C)CC1(CC)C(=O)NC(=S)NC1=O	2.19	
c1ccc(Cn2cnnc2)cc1	0.74	
COC(=O)C(c1ccccc1)C1CCCCN1 (stereo unspecified)		0.2
COc1ccc(S(N)(=O)=O)cc1	0.47	
C(#Cc1ccccc1)c1ccccc1	4.78	
O=Cc1cccs1	1.02	
Cc1cccc(OCC(=O)O)c1	1.78	
O=c1cncc[nH]1	-1.49	
O=[N+]([O-])c1cc[n+]([O-])c2c(F)cccc12	1	
CC(C)(C)c1cccc(OCC(=O)O)c1	2.96	
NC(=O)CCCc1cccnc1	-0.08	
CN(C)C(N(C)C)=S(I)c1ccc(F)cc1 (stereo unspecified)	-0.58	
S=C1CCCN1	-0.05	
O=C(O)CCCCCN1C(=O)C=CC1=O	1.15	

SMILES	logP	logD (pH 7.2)
CNC(=O)ON=Cc1ccccc1	1.49	
COc1noc2c1CNCC2	-0.04	
CN(C)C(=O)OCc1ccc(F)cc1	2.3	
CCCCCCCNC(=O)c1ccccc1	3.94	
COc1ccc(-c2nc3cnccc3o2)c(OC)c1	2.42	
COc1ccc([N+](=O)[O-])cc1N	1.47	
COc1cc(S(C)=O)ccc1-c1nc2ncncc2[nH]1 (stereo unspecified)	0.53	
CS(=O)(=O)ON1C(=O)c2ccc([N+](=O)[O-])cc2C1=O	1.71	
O=C(CCCN1CCC(n2c(=O)[nH]c3ccccc32)CC1)c1ccc(F)cc1	3.91	
O=c1[nH]c(=O)n([C@H]2C[C@H](O)[C@@H](CO)O2)cc1C(F)(F)F	-0.46	
CC(=O)c1cccc(OC(=O)N(C)C)c1	1.18	
CC(C)(C)C(O)C(Oc1ccc(-c2ccccc2)cc1)n1cncn1 (stereo unspecified)	4.16	
CCOC(=O)C(=Cc1ccc(O)c(OC)c1)C(=O)OCC	2.89	
O=C1c2ccccc2C(=O)C1c1ccccc1	2.9	
NC(=S)c1ccccn1	1.24	
COP(=S)(OC)Oc1cc(C)c([N+](=O)[O-])c(C)c1	3.89	
Nc1nc(N)nc(-c2cccc([N+](=O)[O-])c2)n1	1.57	
CC(=O)C(C)=O	-1.34	
CCC(=O)Nc1ccc(Cl)c(Cl)c1	3.07	
Cc1nc2ccccc2[nH]1	1.43	
COCc1ccccc1NC(=O)OCCN1CCCCC1	2.2	
CC(C)C(Br)C(=O)NC(N)=O (stereo unspecified)	1.14	
C[C@](N)(C(=O)O)c1cccc2ccccc12	-0.22	
OCCCc1cccnc1	0.6	

SMILES	logP	logD (pH 7.2)
O=C(O)c1cc([N+](=O)[O-])ccc1Cl	2.03	
Nc1ccc(C(=O)O)c(Cl)c1	1.33	
S=C=Nc1ccc(Br)cc1	4.03	
CCN(C)N=Nc1ccc(C(N)=O)cc1	1.69	
COc1ccc(NS(=O)(=O)c2ccc(N)cc2)cc1	1.51	
NC(=O)CCc1cccnc1	-0.26	
FC(F)(F)F	1.18	
C[C@@H]1C[C@H]2[C@@H]3CCC4=CC(=O)C=C[C@]4(C)[C@@]3(F)[C@@H](O)C[C@]2(C)[C@H]1C(=O)CO	2.35	
COC(=O)C=Cc1ccccc1	2.62	
c1ccc(-c2cc3ccccn3c2)cc1	4.29	
CN(CC(F)(F)F)N=Nc1ccc(C(N)=O)cc1	1.86	
c1ccc2c(c1)oc1ccccc12	4.12	
Clc1cc(Cl)c(Cl)cc1Cl	4.64	
O=C1C(F)=C(N2CC2)C(=O)C(N2CC2)=C1N1CC1	0.14	
O=C(/C=C/c1ccccc1)c1ccccc1	3.08	
ICCI	2.71	
CC(=O)OCC(COC(C)=O)OC(C)=O	0.25	
CC(C)(S)[C@@H](N)C(=O)O	-1.78	
ClCC(Cl)Cl	1.89	
CN(C)C(=O)OCc1ccc(I)cc1	3.32	
O=C(OCC1CCC(n2cnc3c(=O)[nH]cnc32)O1)c1ccccc1 (stereo unspecified)	0.66	
C=CCCCCCCC	5.15	
N#CCc1ccco1	0.85	
Cc1cc(CC(=O)O)ccc1OCc1ccccc1	3.37	

SMILES	logP	logD (pH 7.2)
NC1=CC(=O)c2ccccc2C1=O	1.77	
O=C(O)Cc1cccc(Br)c1	2.37	
c1ccc2c(c1)CCCC2	3.49	
CCC1(CC(C)C(C)C)C(=O)NC(=O)NC1=O (stereo unspecified)	2.02	
CCOP(=O)(OCC)SCn1nnc2ccccc2c1=O	1.63	
O=C(OCCCc1cnc[nH]1)c1ccccc1	2.64	
CC(=O)c1ccc(C#N)cc1	1.22	
CCC(Oc1ccccc1)C(=O)N[C@@H]1C(=O)N2[C@@H]1SC(C)(C)[C@@H]2C(=O)O (stereo partly specified)	2.65	
Nc1ccccn1	0.48	
c1ccc2c(c1)OCCO2	2.01	
CC(=O)c1cccc([N+](=O)[O-])c1	1.42	
CN(C)C(=O)Nc1ccccc1	0.98	
COCCOC(=O)c1ccccc1	1.78	
CN(C)C(N(C)C)=S(I)c1ccccc1 (stereo unspecified)	-0.68	
CC(C)NCC(O)c1ccc(Cl)c(Cl)c1 (stereo unspecified)	3.32	
O=c1ccn(C2OC(CO)C(O)C2O)c(=O)[nH]1 (stereo unspecified)	-1.98	
O=[N+]([O-])c1ccc(O)c([N+](=O)[O-])c1	1.67	
Nc1ccc(C(=O)Oc2cccc(F)c2)c(O)c1	3.42	
COc1cc(O)ccc1O	0.47	
Cc1[nH]cnc1CSCCNc1cccc(=O)[nH]1	0.79	
O[C@@H]1CCCC[C@H]1O	0.08	
CC(C)c1cc([N+](=O)[O-])cc([N+](=O)[O-])c1O	3.1	
N=C(N)NS(=O)(=O)c1ccc(N)cc1	-1.22	

SMILES	logP	logD (pH 7.2)
CC(C)(C)C(N)Cc1ccccc1 (stereo unspecified)	2.91	
CC(=O)Nc1ncc([N+](=O)[O-])s1	1.3	
CNCCO	-0.94	
FC(F)(F)Br	1.86	
Nc1ncnc2c1ncn2[C@@H]1O[C@H](CO)[C@@H](O)[C@H]1O	-1.05	
CNCC(O)c1ccc(O)cc1 (stereo unspecified)	-0.45	
Oc1ccccc1-c1ccccc1	3.09	
Cn1ccc(=O)[nH]c1=O	-1.2	
C#C[C@]1(O)CC[C@H]2[C@@H]3CCC4=CC(=O)CC[C@@H]4[C@H]3CC[C@@]21C	2.97	
CC(=O)c1ccc2ncccc2c1	1.58	
N#CC1CC1	0.68	
OCCNc1ccccc1	0.82	
CCCC1(c2ccncc2)CCC(=O)NC1=O (stereo unspecified)	1.13	
CN(C)C(=O)c1ccccc1	0.62	
COCC(F)Cn1ccnc1[N+](=O)[O-] (stereo unspecified)	0.18	
C[C@]12CCC(=O)C=C1CC[C@@H]1[C@@H]2[C@@H](O)C[C@@]2(C)[C@H]1CC[C@]2(O)C(=O)CO	1.61	
OCCCO	-1.04	
CC(C)(C)C(=O)NC(CO)C(O)c1ccc([N+](=O)[O-])cc1 (stereo unspecified)	1.33	
CCCC(=NOCC)C1C(=O)CC(C)(C)OC1=O (stereo unspecified)	2.56	
COc1cccc([N+](=O)[O-])c1	2.16	
COCCN(C)c1ccc(Nn2c(C)ccc2C)nn1	2.16	
C[C@]12CCC(=O)C=C1CC[C@@H]1[C@@H]2CC[C@]2(C)C(=O)CC[C@@H]12	2.75	
CC(=O)C(Cc1ccccc1)C(C)=O	1.89	
O=C(O)c1cccc(O)c1O	1.2	

SMILES	logP	logD (pH 7.2)
CCC(CNC)c1ccccc1 (stereo unspecified)	2.82	
O=C(Nc1ccccc1)c1cccnc1	1.73	
CC(=O)c1cccc(OCC(=O)O)c1	0.98	
CCCCOC(=O)c1cccnc1	2.27	
CCCCCCn1nnc2ccccc21	3.7	
O=Cc1ccc([N+](=O)[O-])cc1	1.56	
CC(=O)OCc1coc(Cc2ccccc2)c1	3.24	
C=C(Br)CC1(C(C)C)C(=O)NC(=O)N(C)C1=O (stereo unspecified)	2.11	
CCOc1ccccc1	2.51	
O=[N+]([O-])c1cc(Cl)c(Cl)cc1Cl	3.48	
COc1ccccc1NC(=O)Nc1ccccc1OC	2.98	
O=CNc1ccc(F)cc1	1.27	
COC(=S)NCCn1c([N+](=O)[O-])cnc1C	1.15	
C[N+](C)(C)Cc1ccccc1.[Cl-]	-2.17	
Nc1ccc(S)cc1	1.31	
COc1cc(SC)c(OC)cc1CC(C)N (stereo unspecified)	2.17	
CCCCNCCCC	2.83	
CN(C)C(N(C)C)=S(I)c1ccc(Cl)cc1 (stereo unspecified)	-0.2	
CCCCC(NC(C)=O)C(=O)OC (stereo unspecified)	0.79	
CC(=O)Oc1cccc([N+](=O)[O-])c1	1.82	
O=C(O)Cc1ccc(Br)cc1	2.31	
N#Cc1cccc(C(=O)O)c1	1.48	
